Measurements reported in patent US20120302616A1, “METHOD OF TREATMENT OF OBSESSIVE COMPULSIVE DISORDER WITH ONDANSETRON” (priority 2010, published 2012).
Values joined by “and” are separate entries in the source; they are usually repeats but may differ in a detail not shown here. Equal values may be shown once.

Assays:
[1] = system: patients with treatment-resistant OCD; assay: Ondansetron augmentation of SRI plus antipsychotic therapy, single-blind 12-week study (YBOCS, CGI, MADRS); format: in vivo, human
Excerpt: Between March 2008 and November 2008, fourteen adults aged 18 to 55 were enrolled in a study at the Institute for Neuroscience, Florence, Italy. […] All diagnoses were established utilizing a structured interview, the Structured Clinical Interview for DSM IV Axis I Disorders (SCID I). (See Spitzer, R. L. et al. ARCH GEN PSYCHIATRY 49(8):624-649) Potential subjects with a history of alcohol or substance abuse, current severe depressive symptoms, bipolar disorder, panic disorder, schizophrenia, other psychiatric conditions, heart disease, arrhythmia, liver problems (including cirrhosis), seizures, glaucoma or serious medical disease were excluded. Patients with hoarding as their only OCD symptom and women of childbearing potential not using a medically acceptable contraceptive method were also excluded. After being fully informed about the study and signing an informed consent approved by the Internal Institutional Review Board, subjects were administered an ondansetron hydrochloride (oral solution) dosage of 0.25 mg twice a day for 6 weeks, followed by 0.5 mg twice a day for 6 weeks for a total observation period of 12 weeks. […] The Y-BOCS, Montgomery-Asberg Depression Rating Scale (MADRS) (see Montgomery, S. A., BR J PSYCHIATRY 1979; 134:382-389) was administered at screening and baseline, and these assessments were repeated at every follow-up visit at 2-week intervals, along with the Clinical Global Impressions-Improvement (CGI-I) rating (see Guy, W. ECDEU Assessment Manual for Psychopharmacology. US Dept Health, Education, and Welfare publication (ADM) 76-338. Rockville, Md.: National Institute of Mental Health; 1976:218-222) and an unpublished Drug Effect scale. The Drug Effect scale asked subjects to rate “How anxious are you now?” on a scale of zero (not at all) to 10 (“the most anxious I have ever been”). Similar rating questions have been “Do you experience appearance or increment in frequency of headaches?”, “Do you experience appearance or increment in frequency of headaches fatigue?” and “Do you experience appearance or increment in frequency of headaches constipation” and so on regarding other common ondansetron side effects (diarrhea, urinary retention, itching, and dizziness). Furthermore, each evening during the first week of study medication, a study psychiatrist called the subject to ask for major or unexpected collateral effects (as chest pain, an unexplained skin rash, or tremors.). […] (See […]. et al., AM J PSYCHIATRY 1997; 154:320-321) Subjects with MADRS scores ≧18 were excluded. Ratings were administered by an investigator who was blind to the treatment condition of the patients. Given the small sample size, mean changes from baseline in rating scales were tested with a non-parametric method based on ranks (Wilcoxon signed rank test), using a two-tailed significance level of p≦0.05. Relationships among rated and demographical variables were tested with Spearman's rank correlation tests, using a two-tailed significance level of p≦0.05. Age, baseline OCD severity, and depressive symptoms were controlled for by stratifying through the Mantel-Haenszel χ2 test. Body mass index (BMI) was adjusted given the differences of ondansetron bioavailability according to BMI.

[2] = system: mesenteric bed or the nerves in the heart; settings: animal studies; cited from earlier work
[3] = End of 6th week, Non responder (n = 5)
[4] = End of 6th week, Responder (n = 9)
[5] = End of 12th week, Non responder (n = 5)
[6] = End of 12th week, Responder (n = 9)
[7] = from baseline, individual patients 1-14

Compound: Cc1nccn1CC1CCc2c(c3ccccc3n2C)C1=O (stereo not drawn) [ondansetron]
- YBOCS Score ([1]; 6 weeks, individual patients 1-14): 25 (3×) and 28 and 17 (2×) and 16 and 27 and 26 and 24 (3×) and 19 and 21
- average YBOCS score decrease of the whole group ([1]; 6 weeks, n=14): 16%
- patients reaching YBOCS criteria for treatment response (decrease of ≧25%) ([1]; 12th week, 9/14): 64.2%
- patients very much improved or much improved (CGI-I 1 or 2) ([1]; 12th week, of 14): seven
- YBOCS Score ([1]; 12 weeks, individual patients 1-14): 25 (3×) and 15 (2×) and 14 and 30 and 23 and 22 (2×) and 24 and 18 and 17 and 20
- average YBOCS score decrease of the whole group ([1]; 12 weeks, n=14): 23%
- patients with greater than 25% improvement in OCD symptoms ([1]; 12 weeks, n=14): Sixty-four
- CGI (mean) [1, 3]: 4.6
- MADRS (mean) [1, 3]: 8.0
- CGI (mean) [1, 4]: 3.4
- MADRS (mean) [1, 4]: 6.7
- CGI (mean) [1, 5]: 4.8
- MADRS (mean) [1, 5]: 7.6
- YBOCS (mean) [1, 5]: 21.4
- CGI (mean) [1, 6]: 2.3
- MADRS (mean) [1, 6]: 6.8
- YBOCS score decrease ([1]; Patient 11 (citalopram 60 mg/day and risperidone 2 mg/day), 12th week): ≥ 35%
- Mean MADRS scores change from baseline ([1]; baseline to the end of week 1): did not change significantly
- YBOCS Percent Reduction at 6 weeks [1, 7]: 20.00% (2×) and 15.00% and .00%
- YBOCS Percent Reduction at 12 weeks [1, 7]: 28.57% and 25.00% (2×) and 30.00%
- patients with significant improvement in OCD symptoms ([1]; out of 14, within 12 weeks of treatment): 9
- Clinical Global Impressions-Improvement (CGI-I) scores ([1]; through week 12): improved concurrent with improvement in the YBOCS scores
- outcome after discontinuation of the ondansetron ([1]; two responder patients): experienced worsening
- effect on the mesenteric bed or the nerves in the heart [2]: did not appear to have effect
